Source: paper PMC9295122, “Sialic Acid Derivatives Inhibit SiaT Transporters and Delay Bacterial Growth” (ACS Chemical Biology, 2022)
Read-outs that look alike come from different tables or passages of the source.

Key:
[1] = target: T1, PmSiaT (Proteus mirabilis, UniProt B4EZY7); assay: nanoDSF thermal shift assay, PmSiaT; assay type: binding; details: for Average 1 / Average 2 / Average 3 / Replicate 1 / Replicate 2 / Replicate 3: PmSiaT Tm; for Average 1: average of experiment 1; for Average 2: average of experiment 2; for Average 3: average of experiment 3; for Replicate 1: experiment 1, second capillary; for Replicate 2: experiment 2, second capillary; for Replicate 3: experiment 3, second capillary; for Tm 1: experiment 1, first capillary; for Tm2: experiment 2, first capillary; for Tm 3: experiment 3, first capillary; for ΔTm at 1250 µM: read-out: ΔTm average overall
T1 construct: made in house
T1 sequence (B4EZY7 1-496): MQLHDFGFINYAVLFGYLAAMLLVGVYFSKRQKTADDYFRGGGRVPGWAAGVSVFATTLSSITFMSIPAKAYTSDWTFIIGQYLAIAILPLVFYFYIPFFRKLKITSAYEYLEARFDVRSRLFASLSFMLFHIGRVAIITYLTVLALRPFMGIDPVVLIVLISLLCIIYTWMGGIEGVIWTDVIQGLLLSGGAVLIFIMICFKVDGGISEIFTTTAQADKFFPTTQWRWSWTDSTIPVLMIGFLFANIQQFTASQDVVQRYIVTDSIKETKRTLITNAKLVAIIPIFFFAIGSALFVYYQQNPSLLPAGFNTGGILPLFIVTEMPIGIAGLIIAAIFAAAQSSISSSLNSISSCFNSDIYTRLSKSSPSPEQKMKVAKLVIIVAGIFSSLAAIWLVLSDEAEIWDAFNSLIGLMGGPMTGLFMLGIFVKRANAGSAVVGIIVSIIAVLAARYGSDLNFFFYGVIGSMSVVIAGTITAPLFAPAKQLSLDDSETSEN
Method: (§1) Nano-differential scanning fluorimetry (nanoDSF) is a high-throughput method that relies on the thermal stabilization of the folded protein state by a bound ligand.[33]
(§2) The melting points of protein–inhibitor complexes were measured on a Prometheus NT.48 instrument from NanoTemper Technologies. Solutions containing the protein at 2 μM in phosphate buffered saline with 0.0174% (w/v) dodecylmaltoside (DDM) and the ligand at 1.25 mM were loaded onto standard capillaries by NanoTemper. The temperature was increased from 25 to 95 °C at a ramp rate of 1 °C/min. The fluorescence was recorded at 330 and 350 nm and as a ratio of the two wavelengths.
(§3) The intensity ratio and its first derivative were calculated using manufacturer’s software (PR.ThermControl, version 2.1.2).
(§4) The melting temperatures have been measured in 3 separate experiments. In each experiment, two capillaries were included per compound, having therefore 2 technical replicates per experiment. In the table all data is presented. Tm1 and Replicate 1 represent the two replicates of the first experiment. Average 1 is the average between Tm 1 and Replicate 1. ΔTm 1 is the thermal shift when compared to the Tm of Neu5Ac. This is calculated from Average 1. The ΔTm presented in the article are the ΔTm average overall, which represent the overall average of the averages from the three experiments. The standard deviation (SD) is calculated from the […]

[2] = target: SaSiaT (Staphylococcus aureus, UniProt A0A0H2XJ46); assay: nanoDSF thermal shift assay, SaSiaT; assay type: binding; details: for Average 1 / Average 2 / Average 3 / Replicate 1 / Replicate 2 / Replicate 3: SaSiaT Tm; for Average 1: average of experiment 1; for Average 2: average of experiment 2; for Average 3: average of experiment 3; for Replicate 1: experiment 1, second capillary; for Replicate 1 / Replicate 2 / Replicate 3 / Tm 1 / Tm2 / Tm 3 / Overall average (Tm): 1.25 mM; for Replicate 2: experiment 2, second capillary; for Replicate 3: experiment 3, second capillary; for Tm 1: experiment 1, first capillary; for Tm2: experiment 2, first capillary; for Tm 3: experiment 3, first capillary; for Overall average (Tm): three experiments
Method: as §1, §2, §3, §4

[3] = PmSiaT, experiment 1, vs Neu5Ac, read-out: ΔTm 1
[4] = PmSiaT, experiment 2, vs Neu5Ac, read-out: ΔTm 2
[5] = PmSiaT, experiment 3, vs Neu5Ac, read-out: ΔTm 3
[6] = PmSiaT, three experiments, 1.25 mM
[7] = PmSiaT, three experiments, vs Neu5Ac, 1.25 mM

SMILES | Average 1 [1] [°C] | Average 2 [1] [°C] | Average 3 [1] [°C] | Replicate 1 ([1]; 1.25 mM) [°C] | Replicate 2 ([1]; 1.25 mM) [°C] | Replicate 3 ([1]; 1.25 mM) [°C] | Tm 1 ([1]; PmSiaT, 1.25 mM) [°C] | Tm2 ([1]; PmSiaT, 1.25 mM) [°C] | Tm 3 ([1]; PmSiaT, 1.25 mM) [°C] | Tm average overall [1, 6] [°C] | Average 1 [2] [°C] | Average 2 [2] [°C] | Average 3 [2] [°C] | Replicate 1 [2] [°C] | Replicate 2 [2] [°C] | Replicate 3 [2] [°C] | Tm 1 ([2]; SaSiaT) [°C] | Tm2 ([2]; SaSiaT) [°C] | Tm 3 ([2]; SaSiaT) [°C] | Overall average (Tm) ([2]; SaSiaT) [°C] | also measured
CC(=O)NC1C(OCc2ccc(Br)cc2)CC(O)(C(=O)O)OC1C(O)C(O)CO (stereo not shown) [Compound 3c] | 56.7 | 55.9 | 56.0 | 56.7 | 56.0 | 56.1 | 56.6 | 55.8 | 56.0 | 56.2 | 54.2 | 53.5 | 54.5 | 54.4 | 53.5 | 54.4 | 54.1 | 53.5 | 54.5 | 54.1 | ΔTm [1, 3]: 7.7 °C; ΔTm [1, 4]: 6.7 °C; ΔTm [1, 5]: 6.7 °C; ΔTm at 1250 µM [1, 7]: 7 °C
[N-]=[N+]=NCC(=O)N[C@H]1[C@H]([C@H](O)[C@H](O)CO)O[C@@](O)(C(=O)O)C[C@@H]1O [Compound 6h, 5-azidoacetamido-3,5-dideoxy-D-glycero-α-galacto-non-2-ulopyranosonate, reference compound] | 49.2 | 49.0 | 49.1 | 49.2 | 48.8 | 49.3 | 49.2 | 49.2 | 49.0 | 49.1 | 52.8 | 52.9 | 52.8 | 52.7 | 53.0 | 52.7 | 52.8 | 52.7 | 52.8 | 52.8 | ΔTm [1, 3]: -0.1 °C; ΔTm [1, 4]: 0.1 °C; ΔTm [1, 5]: 0 °C; ΔTm at 1250 µM [1, 7]: 0 °C
O=C(NC1C(O)CC(O)(C(=O)O)OC1C(O)C(O)CO)c1ccccc1 (stereo not shown) [Compound 6d] | 45.2 | 45.9 | 45.7 | 45.2 | 45.9 | 45.9 | 45.1 | 45.8 | 45.5 | 45.6 | 46.2 | 45.6 | 46.0 | 46.1 | 45.8 | 45.6 | 46.2 | 45.4 | 46.4 | 45.9 | ΔTm [1, 3]: -3.8 °C; ΔTm [1, 4]: -3.3 °C; ΔTm [1, 5]: -3.6 °C; ΔTm at 1250 µM [1, 7]: -3.6 °C
O=C(CO)N[C@H]1[C@H]([C@H](O)[C@H](O)CO)OC(O)(C(=O)O)C[C@@H]1O (stereo partly shown) [Neu5Gc, 5-N-glycolyl neuraminic acid, reference compound] | 48.0 | 48.1 | 48.0 | 48.0 | 48.0 | 48.0 | 47.9 | 48.1 | 48.0 | 48.0 | 53.3 | 53.3 | 53.6 | 53.3 | 53.4 | 53.6 | 53.3 | 53.2 | 53.6 | 53.4 | ΔTm at 1250 µM [1]: -1.2 °C

Continued, in another order:

Average 1 [1] [°C] | Average 2 [1] [°C] | Average 3 [1] [°C] | Replicate 1 ([1]; 1.25 mM) [°C] | Replicate 2 ([1]; 1.25 mM) [°C] | Replicate 3 ([1]; 1.25 mM) [°C] | Tm 1 ([1]; PmSiaT, 1.25 mM) [°C] | Tm2 ([1]; PmSiaT, 1.25 mM) [°C] | Tm 3 ([1]; PmSiaT, 1.25 mM) [°C] | Tm average overall [1, 6] [°C] | Average 1 [2] [°C] | Average 2 [2] [°C] | Average 3 [2] [°C] | Replicate 1 [2] [°C] | Replicate 2 [2] [°C] | Replicate 3 [2] [°C] | Tm 1 ([2]; SaSiaT) [°C] | Tm2 ([2]; SaSiaT) [°C] | Tm 3 ([2]; SaSiaT) [°C] | Overall average (Tm) ([2]; SaSiaT) [°C] | SMILES | also measured
47.3 | 47.2 | 47.2 | 47.4 | 47.1 | 47.0 | 47.2 | 47.3 | 47.4 | 47.2 | 49.9 | 49.9 | 51.8 | 49.8 | 49.9 | 52.8 | 49.9 | 49.9 | 50.8 | 50.5 | CC(=O)NC1C(O)CC(O)(C(=O)O)OC1C(O)C(O)CBr (stereo not shown) [Compound 8d] | ΔTm [1, 3]: -1.7 °C; ΔTm [1, 4]: -2 °C; ΔTm [1, 5]: -2.1 °C; ΔTm at 1250 µM [1, 7]: -1.9 °C
46.0 | 45.9 | 45.9 | 46.0 | 45.9 | 45.9 | 46.0 | 45.8 | 45.9 | 45.9 | 43.1 | 43.0 | 42.9 | 42.9 | 43.1 | 43.0 | 43.2 | 43.0 | 42.8 | 43.0 | CC(=O)NC1C(O)CC(O)(C(=O)O)OC1C(O)C(C)O (stereo not shown) [Compound 8f] | binding / thermal stabilization in words ([1]; PmSiaT, nanoDSF screen): complete loss of affinity; binding / thermal stabilization in words ([2]; SaSiaT, nanoDSF screen): complete loss of affinity
47.7 | 47.9 | 48.0 | 47.8 | 47.9 | 48.1 | 47.6 | 47.9 | 47.9 | 47.9 | 48.9 | 49.6 | 49.7 | 48.9 | 49.6 | 49.6 | 48.9 | 49.5 | 49.8 | 49.4 | CC(=O)NC1C(O)CC(O)(C(=O)O)OC1C(O)C(O)CCl (stereo not shown) [Compound 8c] | ΔTm [1, 3]: -1.3 °C; ΔTm [1, 4]: -1.3 °C; ΔTm [1, 5]: -1.3 °C; ΔTm at 1250 µM [1, 7]: -1.3 °C
45.9 | 45.9 | 46.1 | 45.9 | 46.0 | 46.1 | 45.8 | 45.9 | 46.2 | 46.0 | 49.9 | 48.6 | 49.8 | 49.9 | 48.7 | 49.6 | 49.9 | 48.5 | 50.0 | 49.4 | CCSCC(O)C(O)C1OC(O)(C(=O)O)CC(O)C1NC(C)=O (stereo not shown) [Compound 8b] | ΔTm [1, 3]: -3.1 °C; ΔTm [1, 4]: -3.3 °C; ΔTm [1, 5]: -3.2 °C; ΔTm at 1250 µM [1, 7]: -3.2 °C
